Measured values as given in patent US8394785B2, “Methods for the treatment and amelioration of urticaria” (Jado Technologies GmbH, priority 2005, dated 2013).

Tests used:
[1] = system: human basophils; assay: Histamine release assay, C5a induced, human basophils; type: cell-based
Description: Human basophils were isolated from whole blood using ficoll paque (D=1.077). Briefly, heparinized whole blood was diluted 1:3 with PBS (w/o Ca and Mg), layered on the ficoll paque solution, and centrifuged for 30 min at 400×g. Low-density particles such as lymphocytes, monocytes, basophils, and platelets were recovered from the interface between the plasma and ficoll solution. The cell suspension from the interface was centrifuged twice at 200×g for 10 min for removal of thrombocytes from the basophil fraction. The number of basophils in the cell suspension was determined by Toluidin blue staining. The yield of basophils was approximately 2%. These pre-purified basophils were used for the histamine release assay. For the cytokine release assays, basophils were further purified using the “Basophil Isolation Kit” for depletion of non-basophils from the interface cell suspension. […] The quantification of histamine levels was achieved using an automated histamine-analyser system (Firm Borgwelt Technik). The wavelength of the excitation was 355-360 nm and the emission wavelength of fluorescence measurement was 450-460 nm. The intensity of fluorescence was directly proportional to the concentration of histamine in the samples. The amount of released histamine was calculated according to the following formula: net histamine release=(release−blank)×(100/complete). […]

[2] = system: C57 mouse mast cell line transfected with the alpha chain of the human high affinity IgE receptor; assay: Histamine release assay, anti-human-IgE induced, C57 cells; type: cell-based; conditions: anti-human-IgE stimulation; 60 min pre-incubation
Description: Stock solution of miltefosine (5 mM) was prepared in DMSO and stored at −20° C. For preparation of the working concentration (2 mM), the stock solution was diluted with PAG-CM (PAG-CM=PIPES Albumin Glucose with Calcium und Magnesium). All other dilutions of miltefosine were prepared with 40% DMSO in PAG-CM buffer. The quantification of histamine levels was achieved using an automated histamine-analyser system (Firm Borgwelt Technik). The wavelength of the excitation was 355-360 nm and the emission wavelength of fluorescence measurement was 450-460 nm. The intensity of fluorescence was directly proportional to the concentration of histamine in the samples. The amount of released histamine was calculated according to the following formula: net histamine release=(release−blank)×(100/complete). “Release”, in this context, was defined as the supernatant of stimulated cells, e.g. by anti-IgE, whereas supernatants of non stimulated cells, i.e. spontaneous release, was termed “blank”. “Complete” stands for the total histamine content of mast cells (after lysing with perchloric acid). The histamine release assays were performed in the PAG-CM buffer system. The numbers of mast cells or basophils in each sample used for histamine release assays was approximately 1×10^4 cells. For stimulation, cells were exposed to anti-IgE, Substance P, Ca-ionophore, or C5a. […]

Compound: CCCCCCCCCCCCCCCCOP(=O)([O-])OCC[N+](C)(C)C [Compound 3, 1-hexadecylphosphoryl-choline]
- inhibition at 25 µM [1]: 75%
- maximal inhibition of histamine release [2]: 40%
